Test in all cases: CDKi biochemical assay (TR-FRET, phosphorylation of S780 on RB1 peptide)
(In general: In TR-FRET formats the signal depends on donor and acceptor labels being close together.)

For one test, the target named is CDK2/CyclinE1 (Homo sapiens, UniProt P24941). Conditions: CDK2/CyclinE1 100 pM, 1 mM ATP, 60 min at 25° C. As to the method: (§1) Biochemical assays measured the inhibitory effects of compounds in this disclosure on the enzymatic activity of CDK enzyme in complex with Cyclin protein partner by phosphorylation of Ser-780 (S780) on retinoblastoma protein peptide (RB1) in the presence of 1 mM adenosime-5-triphosphate (ATP) and varying concentration of test compound in 20 mM 2-[4-(2-hydroxyethyl)paperazin-1-yl] ethanesulfonic acid (HEPES), pH 7.5, 10 mM MgCl2, 1 mM dithiothreitol (DTT), 0.01% bovine serum albumin (BSA), 0.005% Tween 20. Total Reaction volume of 10 μL proceeded for 60 minutes at room temperature (25° C.) and were quenched with 5 μL of 200 mM 2′,2″,2′″-(Ethane-1,2-diyldinitrilo)tetraacetic acid (EDTA) pH 8.0 before addition of 5 μL detection solution containing 100 nM fluorophore conjugate streptavidin allophycocyanin (SA-APC), 2 nM Europium labelled Anti-p-RB(S780)-K (Perkin Elmer, 64CUSKAY), 50 mM HEPES, pH 7.5, 400 mM potassium fluoride (KF), 0.1% BSA, and 0.01% Tween-20. Phosphorylation of S780 on RB1 peptide (His-MBP-RB1[773-924]-SEQ ID NO. 9) was detected by TR-FRET after 3 hour incubation with detection solution. Percent phosphorylation activity was plotted against log concentration of compound to generate an apparent ICSO. The following CDK enzyme in complex with different cyclin proteins and protein peptide substrate were used in these assays: • CDK1/CyclinB1, Avi-tag, 10 pM used in the assay • CDK2/CyclinE1, Avi-tag, 100 pM used in the assay • CDK4/cyclinD1, Avi-tag, 20 pM used in the assay • CDK6/cyclinD3, Avi-tag, 10 pM used in the assay • His-MBP-RB1[773-924], Avi-tag, 200 nM used in the assay
(§2) The avi-tag is a C-terminal fusion on the CDK1/2/4/6 sequence in each of these two-protein complexes. The known avi-tag sequence, […] (SEQ ID NO. 10), is a substrate for E. coli biotin ligase BirA, which covalently attaches a biotin molecule to the e-amino group of the lysine in that sequence. The avi-tag is attached with an 8 amino-acid linker sequence GGSGGGGS (SEQ ID NO. 11), resulting in the full C-terminal fusion
(§3) Recombinant proteins were generated as N-terminal fusions of 9× His tag—E. coli Maltose Binding Protein (MBP), with or without a C-terminal Avi-tag.^1 CDK2 and His-MBP-RB1[773-924]-c-avi were expressed in E. coli while the remainder were expressed in Sf21 insect cells. Genes were synthesized commercially (GeneArt and Twist Bioscience) using codon frequencies appropriate to the respective organisms and proprietary codon optimization strategies, and inserted into pET 24 (E. coli) or pDEST8 (insect) vectors already containing the 9× His-MBP tag using standard methods of PCR and Gibson Assembly.^2 E. coli expression was performed by auto-induction overnight at 18 or 21 C. For insect cell expression, bacmids and viruses were created,^3 then used to synchronously infect Sf21 insect cells with harvest at 40-48 hrs., per standard protocols.^4
(§4) For CDK2/Cyclin E and CDK1/Cyclin B, the CDK and Cyclin proteins were expressed separately, lysed by sonication and clarified by centrifugation. The fusion proteins were each separately purified by immobilized metal ion affinity chromatography (IMAC) (5 mL HisTrap, Cytiva) and Superdex 200 26/60 (Cytiva) size-exclusion and complexed in vitro (1-3 hrs incubation at room temperature) prior to tag cleavage by recombinant his-tagged Tobacco Etch Virus protease or his-tagged Human rhinovirus 3C protease, as appropriate. The cleaved complex is further purified by Superdex 75 26/60 (Cytiva) size-exclusion followed by reverse-IMAC, in which the complex is in the column flow-through and residual His-MBP and his-tagged proteases are retained. The final complex is concentrated as desired by centrifugal concentration (Amicon Ultra 10,000 Da MWCO 15 mL concentrators, Millipore).
For E. coli expressed CDK2 and His-MBP-RB1[773-924]-c-avi, the proteins were biotinylated in vitro after the first IMAC step.^1
(§5) For the is-MBP-RB1[773-924]-c-avi, the protein was lysed by sonication and clarified by centrifugation. […]

The next test has as its target CDK4/cyclinD1 (Homo sapiens, UniProt P11802). Conditions: CDK4/cyclinD1 20 pM, 1 mM ATP, 60 min at 25° C. As to the method:
as §1, §2, §3
(§6) For CDK4/Cyclin D1 and CDK6/Cyclin D3, the complexes were expressed by simultaneous co-infection of insect cells by three separate viruses including one expressing untagged E. coli BirA. The expression media is supplemented with 50 uM d-biotin. The resulting protein complexes purified similarly. After lysis and clarification, the complex is purified by IMAC, Superdex 200 26/60 size exclusion, tag cleavage by human rhinovirus 3C protease, Superdex 75 26/60 size exclusion and reverse IMAC. BirA is typically not retained on the first IMAC, and excess CDK or Cyclin monomer is separated on the Superdex 200 size exclusion. Cleaved His-MBP and remaining monomer are removed by the Superdex 75 size exclusion and the reverse IMAC step. Final concentration by centrifugal concentrators as described above.
as §5

The target of a further test is CDK6/cyclinD3 (Homo sapiens, UniProt Q00534). The following applies: CDK6/cyclinD3 10 pM, 1 mM ATP, 60 min at 25° C. As to the method: as §1, §2, §3, §6, §5
Another test deals with CDK1/CyclinB1 (Homo sapiens, UniProt P06493). Conditions: CDK1/CyclinB1 10 pM, 1 mM ATP, 60 min at 25° C. As to the method: as §1, §2, §3, §4, §5

On to `O=C1N([C@@H]2CCC[C@@H](O)C2)c2nc(Nc3c[nH]nc3O[C@@H]3CC3(F)F)ncc2C12CC2` [Example 70, 2′-((3-((R)-2,2-difluorocyclopropoxy)-1H-pyrazol-4-yl)amino)-7′-((1R,3R)-3-hydroxycyclohexyl)spiro[cyclopropane-1,5′-pyrrolo[2,3-d]pyrimidin]-6′(7′H)-one], for which the IC50 (in general, the concentration that inhibits the measured activity by half) against CDK2/CyclinE1 was 6 nM; at CDK4/cyclinD1, 7690 nM; against CDK6/cyclinD3, at least 10000 nM; against CDK1/CyclinB1 it was 820 nM.
Regarding `O=C1N([C@@H]2CCC[C@@H](O)C2)c2nc(Nc3c[nH]nc3OCC3CC4(COC4)C3)ncc2C12CC2` [Example 54, 2′-((3-((2-oxaspiro[3.3]heptan-6-yl)methoxy)-1H-pyrazol-4-yl)amino)-7′-((1R,3R)-3-hydroxycyclohexyl)spiro[cyclopropane-1,5′-pyrrolo[2,3-d]pyrimidin]-6′(7′H)-one], the IC50 at CDK2/CyclinE1 is 134 nM; at CDK4/cyclinD1 it was at least 10000 nM; against CDK6/cyclinD3 it was at least 10000 nM; at CDK1/CyclinB1 it was at least 10000 nM.
With `Cn1cc(Nc2ncc3c(n2)N([C@@H]2CCC[C@@H](O)C2)C(=O)C32CC2)cn1` [Example 1, 7′-((1R,3R)-3-hydroxycyclohexyl)-2′-((1-methyl-1H-pyrazol-4-yl)amino)spiro[cyclopropane-1,5′-pyrrolo[2,3-d]pyrimidin]-6′(7′H)-one], the IC50 was determined as 38 nM at CDK2/CyclinE1, 400 nM on CDK4/cyclinD1, 600 nM against CDK6/cyclinD3 and 1540 nM against CDK1/CyclinB1.
For `N#Cc1n[nH]cc1Nc1ncc2c(n1)N([C@@H]1CCC[C@@H](O)C1)C(=O)C21CC1` [Example 20, 4-((7′-((1R,3R)-3-hydroxycyclohexyl)-6′-oxo-6′,7′-dihydrospiro[cyclopropane-1,5′-pyrrolo[2,3-d]pyrimidin]-2′-yl)amino)-1H-pyrazole-3-carbonitrile] the same measures were 8 nM, 2160 nM, 2660 nM and 660 nM.
With `COCc1ncc(Nc2ncc3c(n2)N([C@@H]2CCC[C@@H](O)C2)C(=O)C32CC2)[nH]1` [Example 11, 7′-((1R,3R)-3-hydroxycyclohexyl)-2′-((2-(methoxymethyl)-1H-imidazol-5-yl)amino)spiro[cyclopropane-1,5′-pyrrolo[2,3-d]pyrimidin]-6′(7′H)-one], the IC50 was 1350 nM against CDK2/CyclinE1, 5730 nM against CDK4/cyclinD1, 9350 nM on CDK6/cyclinD3 and at least 10000 nM at CDK1/CyclinB1.
In the case of `O=C1N([C@@H]2CCC[C@@H](O)C2)c2nc(Nc3c[nH]nc3-c3cnn(C(F)F)c3)ncc2C12CC2` [Example 34, 2′-((1′-(difluoromethyl)-1H,1′H-[3,4′-bipyrazol]-4-yl)amino)-7′-((1R,3R)-3-hydroxycyclohexyl)spiro[cyclopropane-1,5′-pyrrolo[2,3-d]pyrimidin]-6′(7′H)-one], the IC50 worked out at 10 nM on CDK2/CyclinE1, 3310 nM on CDK4/cyclinD1, 3310 nM against CDK6/cyclinD3 and 2310 nM against CDK1/CyclinB1.
As to `O=C1N([C@@H]2CCC[C@@H](O)C2)c2nc(Nc3c[nH]nc3-c3cnn4cccnc34)ncc2C12CC2` [Example 81, 7′-((1R,3R)-3-hydroxycyclohexyl)-2′-((3-(pyrazolo[1,5-a]pyrimidin-3-yl)-1H-pyrazol-4-yl)amino)spiro[cyclopropane-1,5′-pyrrolo[2,3-d]pyrimidin]-6′(7′H)-one], the IC50 is 6 nM at CDK2/CyclinE1, at least 10000 nM against CDK4/cyclinD1, at least 10000 nM on CDK6/cyclinD3 and 410 nM at CDK1/CyclinB1.
Consider `O=C1N([C@@H]2CCC[C@@H](O)C2)c2nc(Nc3c[nH]nc3O[C@@H]3COC[C@@H]3F)ncc2C12CC2` [Example 26, 2′-((3-(((3R,4S)-4-fluorotetrahydrofuran-3-yl)oxy)-1H-pyrazol-4-yl)amino)-7′-((1R,3R)-3-hydroxycyclohexyl)spiro[cyclopropane-1,5′-pyrrolo[2,3-d]pyrimidin]-6′(7′H)-one], for which the IC50 against CDK2/CyclinE1 was 59 nM; at CDK4/cyclinD1, 5350 nM; on CDK6/cyclinD3, 8500 nM; at CDK1/CyclinB1 it was at least 10000 nM.
For `O=C1N([C@@H]2CCC[C@@H](O)C2)c2nc(Nc3c[nH]nc3C(F)(F)F)ncc2C12CC2` [Example 15, 7′-((1R,3R)-3-hydroxycyclohexyl)-2′-((3-(trifluoromethyl)-1H-pyrazol-4-yl)amino)spiro[cyclopropane-1,5′-pyrrolo[2,3-d]pyrimidin]-6′(7′H)-one] the same measures were 39 nM, at least 10000 nM, at least 10000 nM and 3720 nM.
As for `O=C1N([C@@H]2CCC[C@@H](O)C2)c2nc(Nc3c[nH]nc3OC3(CF)CC3)ncc2C12CC2` [Example 85, 2′-((3-(1-(fluoromethyl)cyclopropoxy)-1H-pyrazol-4-yl)amino)-7′-((1R,3R)-3-hydroxycyclohexyl)spiro[cyclopropane-1,5′-pyrrolo[2,3-d]pyrimidin]-6′(7′H)-one], the IC50 on CDK2/CyclinE1 is 27 nM; on CDK4/cyclinD1, 4400 nM; against CDK6/cyclinD3, at least 10000 nM; against CDK1/CyclinB1, 1710 nM.
Take `O=C1N([C@@H]2CCC[C@@H](O)C2)c2nc(Nc3c[nH]nc3OCCF)ncc2C12CC2` [Example 39, 2′-((3-(2-fluoroethoxy)-1H-pyrazol-4-yl)amino)-7′-((1R,3R)-3-hydroxycyclohexyl)spiro[cyclopropane-1,5′-pyrrolo[2,3-d]pyrimidin]-6′(7′H)-one]: the IC50 amounted to 7 nM at CDK2/CyclinE1, 1430 nM against CDK4/cyclinD1, 2950 nM on CDK6/cyclinD3 and 1200 nM at CDK1/CyclinB1.
For `O=C1N([C@@H]2CCC[C@@H](O)C2)c2nc(Nc3c[nH]nc3OCC(F)F)ncc2C12CC2` [Example 41, 2′-((3-(2,2-difluoroethoxy)-1H-pyrazol-4-yl)amino)-7′-((1R,3R)-3-hydroxycyclohexyl)spiro[cyclopropane-1,5′-pyrrolo[2,3-d]pyrimidin]-6′(7′H)-one], the IC50 came out at 5 nM at CDK2/CyclinE1, 2680 nM against CDK4/cyclinD1, 5090 nM at CDK6/cyclinD3 and 730 nM against CDK1/CyclinB1.
Turning to `O=C1N([C@@H]2CCC[C@@H](O)C2)c2nc(Nc3c[nH]nc3-c3cccnc3)ncc2C12CC2` [Example 61, 7′-((1R,3R)-3-hydroxycyclohexyl)-2′-((3-(pyridin-3-yl)-1H-pyrazol-4-yl)amino)spiro[cyclopropane-1,5′-pyrrolo[2,3-d]pyrimidin]-6′(7′H)-one], the IC50 is 46 nM at CDK2/CyclinE1, 8650 nM against CDK4/cyclinD1, 9190 nM against CDK6/cyclinD3 and at least 10000 nM on CDK1/CyclinB1.

(Values after patent US20240360137A1 (Novartis AG, priority 2023, published 2024).)
